How the values were obtained:
Assay in all cases: Spot-on-lawn inhibition assay
Format in all cases: cell-based
L. ivanovii = test system: L. ivanovii; design: key: –: “−” = No inhibition; “+” = Unclear zone; “++” = zone < 1 cm; “+++” = zone ≥ 1 cm; details: L. ivanovii Li4; 5 µl at 1 mg/ml; n=3
Protocol: (§1) A semi-quantitative spot-on-lawn inhibitory assay was performed on 51 bacterial indicator strains (Table S1) to determine the bacteriocins inhibition spectra. Overnight cultures were diluted 1:100 in BHI soft agar and distributed on BHI agar plates. Once solidified, bacteriocins with various concentrations were applied on designated spots. The plates were incubated at appropriate temperature O/N and inhibition zones were measured the following day. To determine minimal inhibitory concentration (MIC50) of H1 against clinical S. haemolyticus isolates (Table S2), as well as strains heterologously expressing RseP (Table S4), the microtiterplate antimicrobial assay was performed as previously described[41],[79]. MIC50 was defined as the minimal bacteriocin concentration needs to inhibit the growth of a bacterial strain by at least 50%.

Enterococcus avium = test system: Enterococcus avium; design: key: –: “−” = No inhibition; “+” = Unclear zone; “++” = zone < 1 cm; “+++” = zone ≥ 1 cm; details: Enterococcus avium LMG 3465; 5 µl at 1 mg/ml; n=3
Protocol: as §1

E. faecalis = test system: E. faecalis; design: key: –: “−” = No inhibition; “+” = Unclear zone; “++” = zone < 1 cm; “+++” = zone ≥ 1 cm; details: 5 µl at 1 mg/ml, n=3
Protocol: as §1

L. plantarum = test system: L. plantarum; design: key: –: “−” = No inhibition; “+” = Unclear zone; “++” = zone < 1 cm; “+++” = zone ≥ 1 cm; details: L. plantarum LMG 2352; 5 µl at 1 mg/ml; n=3
Protocol: as §1

Lactococcus garvieae = test system: Lactococcus garvieae; design: key: –: “−” = No inhibition; “+” = Unclear zone; “++” = zone < 1 cm; “+++” = zone ≥ 1 cm; details: Lactococcus garvieae DCC43; 5 µl at 1 mg/ml; n=3
Protocol: as §1

E. faecium = details: 5 µl at 1 mg/ml, n=3
Protocol: as §1

Lactobacillus curvatus = details: 5 µl at 1 mg/ml, n=3
Protocol: as §1

S. homonis = S. homonis LMG 3129; 5 µl at 1 mg/ml; n=3
Protocol: as §1

L. salivarius = test system: L. salivarius; design: key: “-“ = No inhibition; “+” = Unclear zone; “++” = zone < 1 cm; “+++”= zone > 1 cm; details: L. salivarius UCC118; 5 µl at 1 mg/ml; n=3
Protocol: as §1

S. simulans = test system: S. simulans; design: key: “-“ = No inhibition; “+” = Unclear zone; “++” = zone < 1 cm; “+++”= zone > 1 cm; details: S. simulans LMG 3233; 5 µl at 1 mg/ml; n=3
Protocol: as §1

S. thermophilus = test system: S. thermophilus; design: key: “-“ = No inhibition; “+” = Unclear zone; “++” = zone < 1 cm; “+++”= zone > 1 cm; details: S. thermophilus Sfi13; 5 µl at 1 mg/ml; n=3
Protocol: as §1

[1] = test system: Streptococcus dysgalactiae; design: key: “-“ = No inhibition; “+” = Unclear zone; “++” = zone < 1 cm; “+++”= zone > 1 cm; details: Streptococcus dysgalactiae 7649-3; 5 µl at 1 mg/ml; n=3
Protocol: as §1

S. uberis = test system: S. uberis; design: key: “-“ = No inhibition; “+” = Unclear zone; “++” = zone < 1 cm; “+++”= zone > 1 cm; details: 5 µl at 1 mg/ml, n=3
Protocol: as §1

Esherichia coli = test system: Esherichia coli; design: key: “-“ = No inhibition; “+” = Unclear zone; “++” = zone < 1 cm; “+++”= zone > 1 cm; details: 5 µl at 1 mg/ml, n=3
Protocol: as §1

L. innocua = test system: L. innocua; design: key: “-“ = No inhibition; “+” = Unclear zone; “++” = zone < 1 cm; “+++”= zone > 1 cm; details: 5 µl at 1 mg/ml, n=3
Protocol: as §1

Carnobacterium divergens = test system: Carnobacterium divergens; design: key: “-“ = No inhibition; “+” = Unclear zone; “++” = zone < 1 cm; “+++”= zone > 1 cm; details: Carnobacterium divergens NCDO 2306; 5 µl at 1 mg/ml; n=3
Protocol: as §1

L. sakei = test system: L. sakei; design: key: “-“ = No inhibition; “+” = Unclear zone; “++” = zone < 1 cm; “+++”= zone > 1 cm; details: 5 µl at 1 mg/ml, n=3
Protocol: as §1

L. monocytogenes = test system: L. monocytogenes; design: key: “-“ = No inhibition; “+” = Unclear zone; “++” = zone < 1 cm; “+++”= zone > 1 cm; details: 5 µl at 1 mg/ml, n=3
Protocol: as §1

S. aureus = test system: S. aureus; design: key: “-“ = No inhibition; “+” = Unclear zone; “++” = zone < 1 cm; “+++”= zone > 1 cm; details: 5 µl at 1 mg/ml, n=3
Protocol: as §1

[2] = Lactobacillus curvatus LTH 1174

With “MKFKFNPTGTIVKKLTQYEIAWFKNKHGYYPWEIPRC [K1, enterocin K1]” the Average inhibition score (L. ivanovii) was “+”, the Average inhibition score (Enterococcus avium) was “+” and the Average inhibition score (E. faecalis; E. faecalis LMG 2333) was “+”. The Average inhibition score (E. faecalis; E. faecalis LMG 3330) was “+”, the Average inhibition score (E. faecalis; E. faecalis LMG 3331) was “+” and the Average inhibition score (E. faecalis; E. faecalis LMG 3332) was “+”. For the same sequence, the Average inhibition score (E. faecalis; E. faecalis V583) was “+”, the Average inhibition score (L. plantarum) was “+” and the Average inhibition score (Lactococcus garvieae) was “+++ (“+++”= zone > 1 cm)”. For the same sequence, the Average inhibition score (E. faecium; E. faecium AL41) was “++ (“++” = zone < 1 cm)”, the Average inhibition score (E. faecium; E. faecium L50) was “++ (“++” = zone < 1 cm)” and the Average inhibition score (E. faecium; E. faecium P13) was “+++ (“+++”= zone > 1 cm)”. For the same sequence, the Average inhibition score (E. faecium; E. faecium P21) was “++ (“++” = zone < 1 cm)”, the Average inhibition score (Lactobacillus curvatus; L. curvatus LMG 2353) was “+++ (“+++”= zone > 1 cm)” and the Average inhibition score (Lactobacillus curvatus; [2]) was “+++ (“+++”= zone > 1 cm)”. The Average inhibition score (S. homonis) was “++ (“++” = zone < 1 cm)”, the Average inhibition score (L. salivarius) was “-” and the Average inhibition score (S. simulans) was “-”. The Average inhibition score (S. thermophilus) was “-”, the Average inhibition score [1] was “-” and the Average inhibition score (S. uberis; S. uberis 8008-1) was “-”. The Average inhibition score (Esherichia coli; E. coli TG1) was “-”, the Average inhibition score (Esherichia coli; Esherichia coli DH5α) was “-” and the Average inhibition score (L. innocua; L. innocua LMG 2710) was “++ (“++” = zone < 1 cm)”. The Average inhibition score (L. innocua; L. innocua LMG 2785) was “+++ (“+++”= zone > 1 cm)”, the Average inhibition score (Carnobacterium divergens) was “-” and the Average inhibition score (L. sakei; L. sakei 148) was “+++ (“+++”= zone > 1 cm)”. The Average inhibition score (L. sakei; L. sakei LMG 2380) was “++ (“++” = zone < 1 cm)”, the Average inhibition score (L. monocytogenes; L. monocytogenes 223) was “-” and the Average inhibition score (L. monocytogenes; L. monocytogenes 279) was “-”. The Average inhibition score (L. monocytogenes; L. monocytogenes 400) was “-”, the Average inhibition score (L. monocytogenes; L. monocytogenes 403) was “-” and the Average inhibition score (S. aureus; S. aureus ATCC14458) was “-”. The Average inhibition score (S. aureus; S. aureus LMG 3263) was “-”, the Average inhibition score (S. aureus; S. aureus LMG 3325) was “-” and the Average inhibition score (S. aureus; S. aureus LMG 3326) was “-”. For the same sequence, the Average inhibition score (S. aureus; S. aureus LMG 3328) was “-” and the Average inhibition score (S. aureus; S. aureus LMG 3329) was “-”.
For “MLAKIKAMIKKFPNPYTLAAKLTTYEINWYKQQYGRYPWERPVA [EJ97, enterocin EJ97]”, the Average inhibition score (L. ivanovii) was “+”, the Average inhibition score (Enterococcus avium) was “+++ (“+++”= zone > 1 cm)” and the Average inhibition score (E. faecalis; E. faecalis LMG 2333) was “+++ (“+++”= zone > 1 cm)”. The Average inhibition score (E. faecalis; E. faecalis LMG 3330) was “+++ (“+++”= zone > 1 cm)”, the Average inhibition score (E. faecalis; E. faecalis LMG 3331) was “+++ (“+++”= zone > 1 cm)” and the Average inhibition score (E. faecalis; E. faecalis LMG 3332) was “+++ (“+++”= zone > 1 cm)”. For the same sequence, the Average inhibition score (E. faecalis; E. faecalis V583) was “+”, the Average inhibition score (L. plantarum) was “++ (“++” = zone < 1 cm)” and the Average inhibition score (Lactococcus garvieae) was “+”. The Average inhibition score (E. faecium; E. faecium AL41) was “+++ (“+++”= zone > 1 cm)”, the Average inhibition score (E. faecium; E. faecium L50) was “+++ (“+++”= zone > 1 cm)” and the Average inhibition score (E. faecium; E. faecium P13) was “+++ (“+++”= zone > 1 cm)”. For the same sequence, the Average inhibition score (E. faecium; E. faecium P21) was “+++ (“+++”= zone > 1 cm)”, the Average inhibition score (Lactobacillus curvatus; L. curvatus LMG 2353) was “+++ (“+++”= zone > 1 cm)” and the Average inhibition score (Lactobacillus curvatus; [2]) was “+++ (“+++”= zone > 1 cm)”. For the same sequence, the Average inhibition score (S. homonis) was “+++ (“+++”= zone > 1 cm)”, the Average inhibition score (L. salivarius) was “-” and the Average inhibition score (S. simulans) was “-”. For the same sequence, the Average inhibition score (S. thermophilus) was “-”, the Average inhibition score [1] was “-” and the Average inhibition score (S. uberis; S. uberis 7904-3) was “-”. The Average inhibition score (S. uberis; S. uberis 8008-1) was “-”, the Average inhibition score (Esherichia coli; E. coli TG1) was “-” and the Average inhibition score (Esherichia coli; Esherichia coli DH5α) was “-”. For the same sequence, the Average inhibition score (L. innocua; L. innocua LMG 2710) was “+++ (“+++”= zone > 1 cm)”, the Average inhibition score (L. innocua; L. innocua LMG 2785) was “-” and the Average inhibition score (Carnobacterium divergens) was “-”. The Average inhibition score (L. sakei; L. sakei 148) was “-”, the Average inhibition score (L. sakei; L. sakei LMG 2380) was “-” and the Average inhibition score (L. monocytogenes; L. monocytogenes 223) was “-”. The Average inhibition score (L. monocytogenes; L. monocytogenes 279) was “-”, the Average inhibition score (L. monocytogenes; L. monocytogenes 400) was “-” and the Average inhibition score (L. monocytogenes; L. monocytogenes 403) was “-”. For the same sequence, the Average inhibition score (S. aureus; S. aureus ATCC14458) was “-”, the Average inhibition score (S. aureus; S. aureus LMG 3325) was “-” and the Average inhibition score (S. aureus; S. aureus LMG 3328) was “-”. For the same sequence, the Average inhibition score (S. aureus; S. aureus LMG 3329) was “-”.

— paper PMC8260761, “A bacteriocin-based treatment option for Staphylococcus haemolyticus biofilms” (Scientific Reports, 2021)
